Data reported in US5994311A, “Cell adhesion peptides for modifying the adhesion capacity of eukaryotic cells between each other” (Beiersdorf AG, priority 1994, dated 1999).
Each block holds one substance with its values, some of them ahead of it.

Key:
HDF cells [1] = test: Cell adherence test with HDF cells; assay type: cell-based, human; settings: for CELL ADHESION [%]: peptide/BSA conjugates bound to polystyrene, approx. 35 nmol peptide per well, 1 hour at 37° C., fibronectin positive control, BSA negative control; for adherence promoting effect for HDF cells (in words): BSA conjugates
Method: (§1) 50 μl each of the peptide/BSA conjugates or the peptides were placed, in different concentrations, in the wells of a 96-well flat-bottomed microtiter plate (DYNATECH). After drying for 2 hours at 37° C., unbound peptide/BSA conjugate or peptide is removed by washing with phosphate-buffered saline solution (PBS) several times. In order to prevent the non-specific adhesion of the cells to polystyrene, all the wells were subsequently saturated for 30 min. at 37° C. with heat-denatured BSA (2 mg/ml). Following that, it was once again washed with PBS.
As a positive control for the adhesion capacity, bovine fibronectin (Paesel & Lorey, 1 mg/ml) was used, and heat-denatured BSA (2 mg/ml) as a negative control; this is not capable of influencing intercellular adhesion.
(§2) The cell adherence test was performed with AKR-2B mouse fibroblasts (Shipley et al., Cancer Res. 44 (1984) 710-716) and human dermal fibroblasts (HDF, removed from the lower arm, 18th passage). AKR-2B cells were cultivated in McCoy's medium (10% calf serum), and HDF cells in Dulbecco's modified eagle medium (DMEM) in the presence of 10% foetal calf serum (FCS) and 1% streptomycin/penicillin. For the adherence test, the cells were washed twice with protein-free HYBRI-MAX™ (medium for culture of hybridoma cell types containing 1 mM Mn^2+ and 0.02% heat-denatured BSA) medium (SIGMA) and then taken up in Hybri-Max (1 mM Mn^2+, 0.02% heat-denatured BSA). In this way, it was largely ensured that neither protein components from the culture medium, nor serum components, such as fibronectin for example, could influence the adherence test. In each well of the microtiter plate previously filled with test substance (peptide concentration per well: approx. 35 nmol), 200 μl of the cell suspension taken up in HYBRI-MAX™ (medium for culture of hybridoma cell types containing 1 mM Mn^2+ and 0.02% heat-denatured BSA) (1 mM Mn^2+, 0.02% heat-denatured BSA) (1.5×10^5 cells/well) were pipetted and incubated for 1 hour in an incubator at 37° C., 5% CO2 atmosphere. After that, the supernatant was decanted off, and non-adhered cells were removed by washing with PBS. The adhered cells were fixed for 0.5 min with methanol and stained with the MERCK HEMACOLOR™ (colution for fast staining in microscopy) reagent kit in order to quantify the number of cells.

HDF cells [2] = test: Chemotaxis test using HDF cells (modified Boyden chambers); assay type: cell-based, human; settings: 4 hours at 37° C., medium control deducted, Collagen 0.3 nmol/ml, Fibronectin 0.6 nmol/ml, peptides 1 μmol/ml
Method: In addition to wound contraction, the epithelialisation of the wound as a result of the migration of cells from the edges of wounds plays a significant role in wound repair. Some selected peptides were investigated in chemotaxis tests in order to study their ability to simulate the migration of HDF cells. The test was conducted in accordance with Scharffetter-Kochanek et al. (J. Invest. Dermatol. 98 (1992) 3-11) in modified Boyden chambers. In the lower cavity of the Boyden chamber, 210 μl DMEM (control) or the potential chemoattractant taken up in the same volume of DMEM were placed. […] 2×10^5 cells were pipetted into the upper Boyden chamber (volume 810 μl). The incubation time was 4 hours at 37° C. The results for the peptides investigated are summed up in Tab. 5, with the figures for the medium control already having been deducted from these readings.

AKR-2B cells [3] = test: Cell adherence test, dilution series on AKR-2B cells (EC50); assay type: cell-based, mouse; settings: for EC50 (semi-maximum cell adherence): peptide/BSA conjugates diluted in PBS, read off from curve
Method: as §1, §2
For some selected conjugates, dilution series were included in order to determine binding constants for AKR-2B cells. For this purpose, the peptide/BSA conjugates were diluted in PBS, and 50 μl each of these dilutions were placed in the wells of a microtiter plate. Incubation and all the other steps were performed according to the method described above. After the readings had been plotted graphically, the difference between the figure for the maximum cell adherence and the zero value could be formed, and the EC50 values shown in Tab. 3 as a measure of the semi-maximum cell adherence could be read off from the line of the curve.
In order to establish binding constants for the peptides of the invention, dose effectiveness curves on AKR-2B cells were recorded for some selected conjugates. The EC50 values shown in Tab. 3 as a measure of semi-maximum cell adherence were read off from the curve concerned (plotted: cell adherence versus peptide concentration). Low EC50 values mean that only small quantities of the substances need to be used in order to achieve a semi-maximum effect, in other words that the substance is very effective.

AKR-2B cells [4] = test: Competitive inhibition test (adherence of AKR-2B cells to BSA/AP#2 conjugate); assay type: cell-based, mouse; settings: for Inhibition (maximum measured reduction in cell adherence): soluble peptide 1 μmol/well, AKR-2B cells, plates coated with BSA/AP#2 conjugate 10 nmol/well; for inhibitory effect on the attachment of AKR-2B cells (in words): soluble peptides, competition with BSA/AP#2 conjugate
Method: Via the specific saturation of surface receptors (shown schematically in FIG. 3E), it is possible, in the case of soluble peptides, to measure an inhibitory effect on the adhesion of test cells (AKR-2B). In the experiment described here, a selected peptide/BSA conjugate corresponding to a peptide concentration of 10 nmol/well was placed in the microtiter plates and incubated for 2 hours at 37° C. Unsaturated binding sites in the culture vessel were subsequently saturated for 30 minutes with heat-denatured BSA (2 mg/ml). The peptides were dissolved in HYBRI-MAX™ (medium for culture of hybridoma cell types containing 1 mM Mn^2+ and 0.02% heat-denatured BSA) Medium (0.02 % BSA, 1 mM Mn^2+), and the pH was adjusted to a level of 7.2 to 7.4. Following that, the peptide solutions were treated with Reductacryl®. […] From these stock solutions, dilution series were prepared in HYBRI-MAX™ (medium for culture of hybridoma cell types containing 1 mM Mn^2+ and 0.02% heat-denatured BSA) medium (1 mM Mn^2+, 0.02% heat-denatured BSA), and added to the AKR-2B cells taken up in the same medium. After that, the specimens were incubated for 10 minutes at 37° C., while being gently shaken. The cells pre-treated in this way (1.5×10^5 /200 μl) were subsequently transferred to the conjugate-coated microtiter plates. The further treatment of the test plates was performed by analogy with 4.1.
The inhibitory effect of the peptides is shown in Tab. 4 as the difference between the 100% figure (control, with no peptide in the medium), and the maximum measured reduction in cell adherence at a peptide concentration of 1 μmol/well. A figure of 100% would mean complete inhibition, i.e. the maximum effect.
For the peptides of the invention available in soluble form, i.e. in a form not bound to carrier molecules, it is possible to detect adhesion inhibiting properties which come about as a result of the specific blockade of epitopes on surface receptors of the test cells (cf. FIG. 3E).
The AP#2 peptide was selected as an internal standard. Compared to most of the other peptides of the invention (cf. Tab. 2), the adhesion promoting properties of BSA/AP#2 conjugates lie within a region of semi-maximum effectiveness. Experience has shown that, in order to detect inhibitory effects, it is favourable to measure in a range of less than optimum effect, since otherwise weak inhibitory effects might not be detected.

Substance: A-E-L-L-D-G-(C) (AELLDG; C-terminal Cys) [AP#24]
CELL ADHESION [%] (HDF cells [1]): 32.7%

Substance: Collagen: collagen I, positive control in chemotaxis test
Avge. no. of cells per field of vision (HDF cells [2]): 45.7
Chemotactic migration [%] (HDF cells [2]): 100.0%

EC50 (semi-maximum cell adherence) (AKR-2B cells [3]): 42.0 pmol/well
Substance: E-L-L-D-G-(C) [AP#25]
CELL ADHESION [%] (HDF cells [1]): 47.7%
EC50 / binding constant on AKR-2B cells (in words) (AKR-2B cells [3]; peptide/BSA conjugates): better binding constant was obtained compared to the control
Inhibition (maximum measured reduction in cell adherence) (AKR-2B cells [4]): 18.1%
inhibitory effect on the attachment of AKR-2B cells (in words) (AKR-2B cells [4]): slightly less efficiency

Substance: FN: bovine fibronectin (Paesel & Lorey, 1 mg/ml), positive control for the adhesion capacity
CELL ADHESION [%] (HDF cells [1]): 100.0%

Substance: Fibronectin
Avge. no. of cells per field of vision (HDF cells [2]): 43.9
Chemotactic migration [%] (HDF cells [2]): 96.0%

Substance: G-G-G-A-G-G-G-S-S-G-S-G-(C) (GGGAGGGSSGSG; C-terminal Cys) [AP#11]
adherence promoting effect for HDF cells (in words) (HDF cells [1]): significant adhesion modifying effect
CELL ADHESION [%] (HDF cells [1]): 30.5%

Substance: G-G-G-S-G-G-G-S-S-G-S-G-(C) (GGGSGGGSSGSG; C-terminal Cys) [AP#10]
adherence promoting effect for HDF cells (in words) (HDF cells [1]): significant adhesion modifying effect
CELL ADHESION [%] (HDF cells [1]): 27.5%

EC50 (semi-maximum cell adherence) (AKR-2B cells [3]): 50.7 pmol/well
Substance: G-I-V-R-T-P-L (GIVRTPL) [AP#9]
adherence promoting effect for HDF cells (in words) (HDF cells [1]): good effectiveness
CELL ADHESION [%] (HDF cells [1]): 93.0%

Substance: G-I-V-R-T-P-L-A-E-L (GIVRTPLAEL) [AP#8]
adherence promoting effect for HDF cells (in words) (HDF cells [1]): good effectiveness
CELL ADHESION [%] (HDF cells [1]): 78.2%
EC50 (semi-maximum cell adherence) (AKR-2B cells [3]): 41.7 pmol/well

Substance: G-R-G-D-S-(C) [IVA1b, reference compound]
adherence promoting effect for HDF cells (in words) (HDF cells [1]): similarly good to those of fibronectin
CELL ADHESION [%] (HDF cells [1]): 93.8%

Substance: G-T-P-G-P-Q-G-I-A-G-Q-R-G-V-V-(C) (GTPGPQGIAGQRGVV; C-terminal Cys) [P-15, adhesion promoting fragment of the α-1(I) chain of collagen, reference compound]
adherence promoting effect for HDF cells (in words) (HDF cells [1]): slightly less effective
CELL ADHESION [%] (HDF cells [1]): 62.1%

Substance: G-V-V-S-T-P-L-V-N-L-I-N-G-(C) [AP#5]
CELL ADHESION [%] (HDF cells [1]): 53.2%

Substance: I-V-R-T-P--- -A-E-L-L-D-G-(C) (AELLDG; N-terminal IVRTP; C-terminal Cys) [AP#14]
CELL ADHESION [%] (HDF cells [1]): 27.0%

Substance: I-V-R-T-P-L-A-E-L-L-D-G-(C) [AP#13]
CELL ADHESION [%] (HDF cells [1]): 37.3%

Substance: L-A-E-L-L-D-G-(C) (LAELLDG; C-terminal Cys) [AP#21]
CELL ADHESION [%] (HDF cells [1]): 43.5%

Substance: L-A-E-L-L-D-G-E-(C) [AP#20]
adherence promoting effect for HDF cells (in words) (HDF cells [1]): increased adherence promoting effect
CELL ADHESION [%] (HDF cells [1]): 54.1%

Substance: L-A-E-L-L-D-G-E-G-(C) [AP#19]
adherence promoting effect for HDF cells (in words) (HDF cells [1]): increased adherence promoting effect
CELL ADHESION [%] (HDF cells [1]): 51.9%

Substance: L-A-E-L-L-D-G-E-G-Q-(C) [AP#18]
adherence promoting effect for HDF cells (in words) (HDF cells [1]): only have a basal adhesion promoting effect
CELL ADHESION [%] (HDF cells [1]): 11.9%

Substance: L-A-E-L-L-E-G-(C) (LAELLEG; C-terminal Cys) [AP#22]
adherence promoting effect for HDF cells (in words) (HDF cells [1]): somewhat reduced adherence efficacy
CELL ADHESION [%] (HDF cells [1]): 18.8%

Substance: L-A-E-L-L-L-G-(C) (LAELLLG; C-terminal Cys) [AP#23]
adherence promoting effect for HDF cells (in words) (HDF cells [1]): somewhat reduced adherence efficacy
CELL ADHESION [%] (HDF cells [1]): 26.4%

Substance: L-D-G-(C) [AP#27]
adherence promoting effect for HDF cells (in words) (HDF cells [1]): significant adhesion promoting effect
CELL ADHESION [%] (HDF cells [1]): 23.3%

Substance: L-L-D-G-(C) [AP#26]
CELL ADHESION [%] (HDF cells [1]): 31.3%

Substance: Q-I-D-F-N-R-L-F-T-H-P-V-T-D-L-F-D-P-(C) [AP#1]
adherence promoting effect for HDF cells (in words) (HDF cells [1]): Particularly good effectiveness
CELL ADHESION [%] (HDF cells [1]): 72.5%
EC50 (semi-maximum cell adherence) (AKR-2B cells [3]): 32.9 pmol/well

Substance: R-T-P--- -A-E-L-L-D-G-(C) [AP#16]
CELL ADHESION [%] (HDF cells [1]): 21.4%

Substance: R-T-P-L-A-E-L-L-D-G-(C) [AP#15]
CELL ADHESION [%] (HDF cells [1]): 28.5%

EC50 (semi-maximum cell adherence) (AKR-2B cells [3]): 64.5 pmol/well
Substance: S-V-T-L-G-(C) [SVTLG, reference compound]
adherence promoting effect for HDF cells (in words) (HDF cells [1]): slightly less effective
CELL ADHESION [%] (HDF cells [1]): 72.1%

Substance: T-V-L-R-N-I-Q-E-L-L-D-G-E-(C) [AP#12]
CELL ADHESION [%] (HDF cells [1]): 74.2%
EC50 (semi-maximum cell adherence) (AKR-2B cells [3]): 29.0 pmol/well

EC50 (semi-maximum cell adherence) (AKR-2B cells [3]): 0.73 pmol/well
Substance: V-T-G-R-G-D-S-P-A-(C) [IVA1, reference compound]
adherence promoting effect for HDF cells (in words) (HDF cells [1]): similarly good to those of fibronectin
CELL ADHESION [%] (HDF cells [1]): 93.9%
Inhibition (maximum measured reduction in cell adherence) (AKR-2B cells [4]): 2.6%
inhibitory effect on the attachment of AKR-2B cells (in words) (AKR-2B cells [4]): virtually no effect
